According to ChEMBL document CHEMBL1201862, “PubChem BioAssay data set” (2004):
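Following 48 hours of exposure in 96-well plates, responses at five concentrations were used to interpolate endpoints linearly. At the GI50, growth is halved.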 The source made the active and inactive calls. No stated cut-off is given here; in the data, active = GI50 up to about 1.1 µM and inactive = higher.

What was measured:
Test in all cases: NCI anticancer screen, dose series, 48 h
[1] = test system: SNB-19
[2] = test system: Malme-3M
[3] = test system: HT-29
[4] = test system: NCI-H522
[5] = test system: XF498
[6] = test system: IGROV-1
[7] = test system: CAKI-1
[8] = test system: EKVX
[9] = test system: LOX IMVI
[10] = test system: SNB-75
[11] = test system: MCF7
[12] = test system: NCI/ADR-RES
[13] = test system: Hs-578T
[14] = test system: PC-3
[15] = test system: BT-549
[16] = test system: MDA-MB-231
[17] = test system: DU-145
[18] = test system: MDA-MB-435
[19] = test system: MDA-N
[20] = test system: T47D

Measured: GI50

CC1=Nc2ccccc2C12C(c1ccccc1)C(c1ccccc1)C(=O)N1c3ccccc3CC12 (stereo unspecified)
inactive: [1] > 100 µM | [2] > 100 µM | [3] > 100 µM | [4] > 100 µM | [5] 11.9 µM | [6] > 100 µM | [7] > 100 µM | [8] > 100 µM | [9] > 100 µM | [10] 73.1 µM

CCOC(=O)C1C(=O)CN2CCc3c([nH]c4ccccc34)C12C(=O)OCC (stereo unspecified)
inactive: [1] > 100 µM | [2] > 100 µM | [3] > 100 µM | [4] > 100 µM | [5] > 100 µM | [6] > 100 µM | [7] > 100 µM | [8] > 100 µM | [9] > 100 µM | [10] > 100 µM

CC1(C)C2CCC3(OCCO3)C1C1OC12 (stereo unspecified)
inactive: [1] 30 µM | [2] > 100 µM | [3] > 100 µM | [4] > 100 µM | [5] > 100 µM | [7] 44.3 µM | [8] > 100 µM | [9] > 100 µM | [10] 41.4 µM

CN=S(=O)(C[C@]1(O)CC2OC1C1OC(C)(C)OC21)c1ccccc1 (stereo partly specified)
inactive: [1] > 100 µM | [2] > 100 µM | [3] > 100 µM | [4] > 100 µM | [5] > 100 µM | [6] > 100 µM | [7] > 100 µM | [8] > 100 µM | [10] 83 µM

O=S(=O)(N/N=C/c1c(Cl)cccc1Cl)c1ccccc1
inactive: [2] > 100 µM | [3] > 100 µM | [5] 68.4 µM | [6] > 100 µM | [8] > 100 µM | [9] > 100 µM | [10] 31.3 µM

CC#C[C@@]1(O)CCCC[C@@H]1O
inactive: [1] > 100 µM | [2] > 100 µM | [3] > 100 µM | [4] > 100 µM | [5] > 100 µM | [6] > 100 µM | [8] > 100 µM | [9] > 100 µM | [10] > 100 µM

COc1ccc(CCC2NCCc3cc(OC)c(OC)cc32)cc1 (stereo unspecified)
inactive: [1] > 100 µM | [2] > 100 µM | [3] > 100 µM | [4] > 100 µM | [5] > 100 µM | [7] > 100 µM | [8] > 100 µM | [10] > 100 µM

C[C@@H]1O[C@]2(O)[C@@H]3CCCN3S(=O)(=O)CCN2C1=O
inactive: [1] > 100 µM | [2] > 100 µM | [3] > 100 µM | [4] > 100 µM | [5] 8.41 µM | [6] > 100 µM | [7] > 100 µM | [8] > 100 µM | [9] > 100 µM | [10] > 100 µM

C/C=C/C(C#N)O[Si](C)(C)C (stereo unspecified)
inactive: [1] > 100 µM | [2] > 100 µM | [3] > 100 µM | [4] > 100 µM | [5] > 100 µM | [6] > 100 µM | [7] > 100 µM | [8] > 100 µM | [10] > 100 µM

C/C(=C/c1c(C)[nH]c(=O)[nH]c1=O)C(=O)O
inactive: [1] > 1370 µM | [11] > 1370 µM | [2] > 1370 µM | [3] > 1370 µM | [4] > 1370 µM | [12] > 1370 µM | [5] > 1370 µM | [6] > 1370 µM | [7] > 1370 µM | [8] 1290 µM | [9] > 1370 µM | [10] > 1370 µM

CCCSc1nc(COC(=O)NC)c(COC(=O)NC)n1C
inactive: [1] > 100 µM | [11] 47.6 µM | [2] > 100 µM | [3] > 100 µM | [12] > 100 µM | [5] > 100 µM | [6] > 100 µM | [7] 48.1 µM | [8] > 100 µM | [9] > 100 µM | [10] > 91.2 µM

CC(=O)c1cccc(NC(=O)C(=O)C(C(=O)c2ccccc2F)C2OC(=O)c3ccccc32)c1 (stereo unspecified)
inactive: [1] 32.1 µM | [3] 35.9 µM | [4] 19.4 µM | [5] 35.6 µM | [6] 74.8 µM | [7] 65.3 µM | [8] 43.4 µM | [9] 19.5 µM | [10] 25.8 µM

N#CN=C(N(Cc1ccccc1)Cc1ccccc1)N(Cc1ccccc1)Cc1ccccc1
inactive: [1] 28.7 µM | [2] 36.7 µM | [3] 6.22 µM | [4] 4.69 µM | [5] 12.5 µM | [6] 3.48 µM | [7] 11.6 µM | [8] 7.11 µM | [9] 20.4 µM | [10] 95.7 µM

CN(/N=C/c1cccc2cccnc12)c1ccc([N+](=O)[O-])cc1[N+](=O)[O-]
inactive: [1] 11.3 µM | [11] 40.8 µM | [13] 9.71 µM | [2] 18.2 µM | [14] 55 µM | [3] > 100 µM | [4] 16.4 µM | [12] 39.8 µM | [15] 21.3 µM | [5] 6.01 µM | [16] 23.1 µM | [17] 65.5 µM | [6] 24.5 µM | [18] > 100 µM | [7] 24.4 µM | [8] 45.8 µM | [19] > 100 µM | [20] 23.1 µM | [9] 57.9 µM | [10] 10.1 µM

Cc1ccc(-c2nnc3s/c(=C\c4ccc(N(C)C)cc4)c(=O)n23)cc1
inactive: [1] > 100 µM | [2] > 100 µM | [4] > 100 µM | [5] > 100 µM | [6] > 100 µM | [7] > 100 µM | [8] > 100 µM | [9] > 100 µM | [10] 65.2 µM

CN(CCN(C)CCN(C)C(=O)Cc1ccc(Cl)c(Cl)c1)CCN1CCCC1
inactive: [1] 39 µM | [11] 24.2 µM | [13] 28.5 µM | [2] 20.5 µM | [14] 34.7 µM | [3] 7.36 µM | [4] 20.6 µM | [12] > 100 µM | [15] 25.7 µM | [16] 17.7 µM | [17] 57.3 µM | [6] 31.1 µM | [18] 5.68 µM | [7] 35.2 µM | [8] 45.4 µM | [19] 6.85 µM | [20] 24.6 µM | [9] 16.6 µM | [10] 28 µM
